Experimental data: patent publication US9856279B2 (AGIOS PHARMACEUTICALS, INC, priority 2011, dated 2018)

Columns and labels:
IDH1 R132H = IDH1 R132H (Homo sapiens, UniProt O75874, R132H); experiment: Assay for IDH1 R132H inhibitors (NADPH/aKG, resazurin detection); type: biochemical; settings: enzyme assay of Example 12; read-out: IDH1R132H IC50
Summary of the method: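 Read-out is resorufin fluorescence (Ex544/Em590) 5 min after adding a 30 μM resazurin detection mix. Before that, mutant enzyme (0.2 μg/ml in its mix) ran 50 min at room temperature with compound, 8 uM NADPH and 2 mM aKG (mix levels) in Tris pH 7.5 with NaCl, MgCl2, BSA.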

HT1080 cells = experiment: Cellular assay for IDH1m inhibitors: inhibition of 2-HG production (LC-MS, 48 hours) in HT1080 cells; type: cell-based; settings: Homo sapiens, HT-1080; inhibition of 2-HG production, HT1080 cells; read-out: HT1080 IC50
Protocol: Cells (e.g., HT1080 or U87MG) and are grown in T125 flasks in DMEM containing 10% FBS, 1× penicillin/streptomycin and 500 ug/mL G418. They are harvested by trypsin and seeded into 96 well white bottom plates at a density of 5000 cell/well in 100 ul/well in DMEM with 10% FBS. No cells are plates in columns 1 and 12. Cells are incubated overnight at 37° C. in 5% CO2. The next day compounds are made up at 2× concentration and 100 ul are added to each cell well. The final concentration of DMSO is 0.2% and the DMSO control wells are plated in row G. The plates are then placed in the incubator for 48 hours. At 48 hours, 100 μl of media is removed from each well and analyzed by LC-MS for 2-HG concentrations. The cell plate is placed back in the incubator for another 24 hours. At 72 hours post compound addition, 10 mL/plate of Promega Cell Titer Glo reagent is thawed and mixed. The cell plate is removed from the incubator and allowed to equilibrate to room temperature. Then 100 ul of reagent is added to each well of media. The cell plate is then placed on an orbital shaker for 10 minutes and then allowed to sit at room temperature for 20 minutes. The plate is then read for luminescence with an integration time of 500 ms.
The IC50 for inhibition of 2-HG production (concentration of test compound to reduce 2HG production by 50% compared to control) in these two cell lines for various compounds of formula I is set forth in Table 4 above.

IDH1 R132H, sequence (O75874 whole entry R132H): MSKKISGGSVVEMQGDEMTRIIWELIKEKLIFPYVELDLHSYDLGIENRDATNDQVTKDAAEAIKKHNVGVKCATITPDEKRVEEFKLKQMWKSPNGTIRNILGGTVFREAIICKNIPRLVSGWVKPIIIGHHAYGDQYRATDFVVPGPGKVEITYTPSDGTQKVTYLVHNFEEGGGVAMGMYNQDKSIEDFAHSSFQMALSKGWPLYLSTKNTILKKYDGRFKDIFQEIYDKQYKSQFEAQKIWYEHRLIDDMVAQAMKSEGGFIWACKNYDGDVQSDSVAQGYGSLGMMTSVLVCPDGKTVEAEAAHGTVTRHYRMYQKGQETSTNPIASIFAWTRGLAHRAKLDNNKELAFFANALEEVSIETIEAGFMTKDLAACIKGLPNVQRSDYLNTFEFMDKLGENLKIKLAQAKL

SMILES | IC50 (IDH1 R132H) [nM] | IC50 (HT1080 cells) [nM]
C=Cc1ccc2c(-c3cc(C#N)c(N4CCN(C(=O)CCOC)[C@H](C5CC5)C4)nc3C3CC3)cccc2n1 [Compound 570, (R)-6-cyclopropyl-2-(3-cyclopropyl-4-(3-methoxypropanoyl)piperazin-1-yl)-5-(2-vinylquinolin-5-yl)nicotinonitrile] | < 500 | < 500
C=Cc1cc(-c2cc(C#N)c(N3CCN(C(=O)C4CC4)[C@@H](C4CC4)C3)nc2C2CC2)ncn1 [Compound 578, (S)-2-(4-(cyclopropanecarbonyl)-3-cyclopropylpiperazin-1-yl)-6-cyclopropyl-5-(6-vinylpyrimidin-4-yl)nicotinonitrile] | < 500 | < 500
CCO[C@H]1C[C@@H]1C(=O)N1CCN(c2nc(C3CC3)c(-c3cccc4cnccc34)cc2C#N)C[C@H]1C1CC1 [Compound 514, 6-cyclopropyl-2-((R)-3-cyclopropyl-4 ((1S,2S)-2-ethoxycyclopropanecarbonyl)piperazin-1-yl)-5-(isoquinolin-5-yl)nicotinonitrile] | < 500 | < 500
C=Cc1ccc2c(-c3cc(C#N)c(N4CCN(C(=O)CCO)[C@H](C5CC5)C4)nc3C3CC3)cccc2n1 [Compound 569, (R)-6-cyclopropyl-2-(3-cyclopropyl-4-(3-hydroxypropanoyl)piperazin-1-yl)-5-(2-vinylquinolin-5-yl)nicotinonitrile] | < 500 | < 500
CCS(=O)(=O)N1CCN(c2cc(C#N)c(N3CCN(C(=O)C4CC4)[C@H](C4CC4)C3)nc2C2CC2)CC1 [Compound 529, (R)-2-(4-(cyclopropanecarbonyl)-3-cyclopropylpiperazin-1-yl)-6-cyclopropyl-5-(4-(ethylsulfonyl)piperazin-1-yl)nicotinonitrile] | < 500 | 500 to 1000
C=Cc1ncccc1-c1cc(C#N)c(N2CCN(C(=O)CCOC)[C@H](C)C2)nc1C1CC1 [Compound 619, (R)-2-cyclopropyl-6-(4-(3-methoxypropanoyl)-3-methylpiperazin-1-yl)-2′-vinyl-3,3′-bipyridine-5-carbonitrile] | < 500 | < 500
C[C@@H]1CN(c2nc(C3CC3)c(Nc3ccc(C#N)nc3)cc2C#N)CCN1C(=O)CCO [Compound 582, (R)-5-((5-cyano-2-cyclopropyl-6-(4-(3-hydroxypropanoyl)-3-methylpiperazin-1-yl)pyridin-3-yl)amino)picolinonitrile] | < 500 | 1000 to 10000
N#Cc1cc(-c2cccc3c[n+]([O-])ccc23)c(C2CC2)nc1N1CCN(C(=O)C2CC2)[C@H](C2CC2)C1 [Compound 439, (R)-5-(5-cyano-6-(4-(cyclopropanecarbonyl)-3-cyclopropylpiperazin-1-yl)-2-cyclopropylpyridin-3-yl)isoquinoline 2-oxide] | < 500 | < 500
C=Cc1cc(-c2cc(C#N)c(N3CCN(C(=O)CCC=O)[C@H](C)C3)nc2C2CC2)ccn1 [Compound 607, (R)-2-cyclopropyl-6-(3-methyl-4-(4-oxobutanoyl)piperazin-1-yl)-2′-vinyl-[3,4′-bipyridine]-5-carbonitrile] | < 500 | < 500
COCCC(=O)N1CCN(c2nc(C3CC3)c(-c3ccc4nccnc4c3)cc2C#N)C[C@H]1C [Compound 445, (R)-6-cyclopropyl-2-(4-(3-methoxypropanoyl)-3-methylpiperazin-1-yl)-5-(quinoxalin-6-yl)nicotinonitrile] | < 500 | 1000 to 10000
C=Cc1ccnc(-c2cc(C#N)c(N3CCN(C(=O)CCOC)[C@H](C)C3)nc2C2CC2)c1 [Compound 596, (R)-2′-cyclopropyl-6′-(4-(3-methoxypropanoyl)-3-methylpiperazin-1-yl)-4-vinyl-2,3′-bipyridine-5′-carbonitrile] | < 500 | < 500
C=CC(=O)N1CCOC(c2cc(C#N)c(N3CCN(C(=O)C4CC4)[C@H](C)C3)nc2C2CC2)C1 (stereo partly drawn) [Compound 600, 5-(4-acryloylmorpholin-2-yl)-2-((R)-4-(cyclopropanecarbonyl)-3-methylpiperazin-1-yl)-6-cyclopropylnicotinonitrile] | 500 to 1000 | 500 to 1000
N#Cc1ccc2c(-c3cc(C#N)c(N4CCN(C(=O)C5CC5)[C@H](C5CC5)C4)nc3C3CC3)cccc2n1 [Compound 563, (R)-5-(5-cyano-6-(4-(cyclopropanecarbonyl)-3-cyclopropylpiperazin-1-yl)-2-cyclopropylpyridin-3-yl)quinoline-2-carbonitrile] | < 500 | < 500
N#Cc1ccc2c(-c3cc(C#N)c(N4CCN(C(=O)CC(F)(F)F)[C@H](C5CC5)C4)nc3C3CC3)cccc2n1 [Compound 535, (R)-5-(5-cyano-2-cyclopropyl-6-(3-cyclopropyl-4-(3,3,3-trifluoropropanoyl)piperazin-1-yl)pyridin-3-yl)quinoline-2-carbonitrile] | < 500 | < 500
C=C(C)c1cc(-c2cc(C#N)c(N3CCN(C(=O)C4CC4)[C@H](C4CC4)C3)nc2C2CC2)ccn1 [Compound 544, (R)-6-(4-(cyclopropanecarbonyl)-3-cyclopropylpiperazin-1-yl)-2-cyclopropyl-2′-(prop-1-en-2-yl)-3,4′-bipyridine-5-carbonitrile] | < 500 | 500 to 1000
C=CC(=O)N1CCC=C(c2cc(C#N)c(N3CCN(C(=O)C4CC4)[C@H](C)C3)nc2C2CC2)C1 [Compound 575, (R)-5-(1-acryloyl-1,2,5,6-tetrahydropyridin-3-yl)-2-(4-(cyclopropanecarbonyl)-3-methylpiperazin-1-yl)-6-cyclopropylnicotinonitrile] | < 500 | < 500
N#Cc1cc(-c2cccc3c(C#N)nccc23)c(C2CC2)nc1N1CCN(C(=O)C2CC2)[C@H](C2CC2)C1 [Compound 511, (R)-5-(5-cyano-6-(4-(cyclopropanecarbonyl)-3-cyclopropylpiperazin-1-yl)-2-cyclopropylpyridin-3-yl)isoquinoline-1-carbonitrile] | < 500 | 500 to 1000

More lines, now with the values ahead:

IC50 (IDH1 R132H) [nM] | IC50 (HT1080 cells) [nM] | SMILES
< 500 | < 500 | C=Cc1cc(-c2cc(C#N)c(N3CCN(C(=O)CCOC)[C@H](C)C3)nc2C2CC2)cc(C=C)n1 [Compound 624, (R)-2-cyclopropyl-6-(4-(3-methoxypropanoyl)-3-methylpiperazin-1-yl)-2′,6′-divinyl-[3,4′-bipyridine]-5-carbonitrile]
500 to 1000 | 1000 to 10000 | C=Cc1cc(-c2cc(C#N)c(N3CCN(C(=O)CCOC)[C@H](C)C3)nc2C2CC2)cc(OC)n1 [Compound 622, (R)-2-cyclopropyl-2′-methoxy-6-(4-(3-methoxypropanoyl)-3-methylpiperazin-1-yl)-6′-vinyl-[3,4′-bipyridine]-5-carbonitrile]
< 500 | < 500 | N#Cc1ccnc(Nc2cc(C#N)c(N3CCN(C(=O)C[C@H]4CCO4)[C@H](C4CC4)C3)nc2C2CC2)c1 [Compound 809, 5-(4-cyanopyridin-2-ylamino)-6-cyclopropyl-2-((R)-3-cyclopropyl-4-(2-((R)-oxetan-2-yl)acetyl)piperazin-1-yl)nicotinonitrile]
< 500 | < 500 | C=Cc1cc(-c2cc(C#N)c(N3CCN(C(=O)C[C@H]4CCCO4)[C@H](C4CC4)C3)nc2C2CC2)ccn1 [Compound 822]
< 500 | < 500 | C=Cc1ccc(-c2cc(C#N)c(N3CCN(C(=O)CCOC)[C@H](C)C3)nc2C2CC2)cn1 [Compound 620, (R)-2-cyclopropyl-6-(4-(3-methoxypropanoyl)-3-methylpiperazin-1-yl)-6′-vinyl-3,3′-bipyridine-5-carbonitrile]
< 500 | < 500 | N#Cc1ccnc(Nc2cc(C#N)c(N3CCN(C(=O)C[C@H]4CCO4)[C@H](C4CC4)C3)nc2C2CC2)n1 [Compound 808, 2-(5-cyano-2-cyclopropyl-6-((R)-3-cyclopropyl-4-(2-((R)-oxetan-2-yl)acetyl)piperazin-1-yl)pyridin-3-ylamino)pyrimidine-4-carbonitrile]
< 500 | < 500 | C=Cc1ccnc(Nc2cc(C#N)c(N3CCN(C(=O)CC4CCC4)[C@H](C4CC4)C3)nc2C2CC2)c1 [Compound 817, (R)-2-(4-(2-cyclobutylacetyl)-3-cyclopropylpiperazin-1-yl)-6-cyclopropyl-5-((4-vinylpyridin-2-yl)amino)nicotinonitrile]
< 500 | < 500 | C=C(CO)c1cc(-c2cc(C#N)c(N3CCN(C(=O)CCOC)[C@H](C)C3)nc2C2CC2)ccn1 [Compound 653, (R)-2-cyclopropyl-2′-(3-hydroxyprop-1-en-2-yl)-6-(4-(3-methoxypropanoyl)-3-methylpiperazin-1-yl)-[3,4′-bipyridine]-5-carbonitrile]
